Results taken from patent US8535902B2, “Peptidase substrates” (bioMërieux, S.A., priority 2009, dated 2013).

Assays:
Assay in all cases: Peptidase detection on Columbia medium with substrate, spot inoculation
Type in all cases: cell-based
[1] = tested on: Candida albicans ATCC 90 028; conditions: 40 mg substrate in 400 ml Columbia medium; 24 hours at 37° C.; visual reading
Method: (§1) A weight of 40 mg of substrate was dissolved in 4 ml of dimethyl sulfoxide and added to 400 ml of previously autoclaved Columbia medium. The medium was distributed into Petri dishes 90 mm in diameter, in a proportion of 20 ml per dish. Seventeen strains of microorganisms stemming from collections and belonging to various species of bacteria and yeasts are inoculated in spots of approximately 10 000 colony-forming units. The media are incubated for 24 hours at 37° C., and then the colonies formed are examined visually.

[2] = tested on: Pseudomonas aeruginosa NCTC 10 662; conditions: 40 mg substrate in 400 ml Columbia medium; 24 hours at 37° C.; visual reading
Method: as §1

[3] = tested on: Escherichia coli NCTC 10 418; conditions: 40 mg substrate in 400 ml Columbia medium, 24 hours at 37° C., visual reading
Method: as §1

[4] = tested on: Enterococcus faecium NCTC 7 171; conditions: 40 mg substrate in 400 ml Columbia medium; 24 hours at 37° C.; visual reading
Method: as §1

[5] = tested on: Staphylococcus aureus NCTC 11 939; conditions: 40 mg substrate in 400 ml Columbia medium; 24 hours at 37° C.; visual reading
Method: as §1

[6] = tested on: Staphylococcus epidermidis NCTC 11 047; conditions: 40 mg substrate in 400 ml Columbia medium; 24 hours at 37° C.; visual reading
Method: as §1

[7] = tested on: Listeria monocytogenes NCTC 11 994; conditions: 40 mg substrate in 400 ml Columbia medium; 24 hours at 37° C.; visual reading
Method: as §1

[8] = tested on: Providencia rettgeri NCTC 7 475; conditions: 40 mg substrate in 400 ml Columbia medium; 24 hours at 37° C.; visual reading
Method: as §1

[9] = tested on: Bacillus subtilis NCTC 9 372; conditions: 40 mg substrate in 400 ml Columbia medium; 24 hours at 37° C.; visual reading
Method: as §1

[10] = tested on: Enterococcus faecalis NCTC 775; conditions: 40 mg substrate in 400 ml Columbia medium, 24 hours at 37° C., visual reading
Method: as §1

[11] = tested on: Salmonella typhimurium NCTC 74; conditions: 40 mg substrate in 400 ml Columbia medium; 24 hours at 37° C.; visual reading
Method: as §1

[12] = tested on: Enterobacter cloacae NCTC 11 936; conditions: 40 mg substrate in 400 ml Columbia medium, 24 hours at 37° C., visual reading
Method: as §1

[13] = tested on: Staphylococcus aureus NCTC 6 571; conditions: 40 mg substrate in 400 ml Columbia medium; 24 hours at 37° C.; visual reading
Method: as §1

[14] = tested on: Yersinia enterocolitica NCTC 11 176; conditions: 40 mg substrate in 400 ml Columbia medium; 24 hours at 37° C.; visual reading
Method: as §1

[15] = tested on: Candida glabrata NCPF 3 943; conditions: 40 mg substrate in 400 ml Columbia medium; 24 hours at 37° C.; visual reading
Method: as §1

[16] = tested on: Serratia marcescens NCTC 10 211; conditions: 40 mg substrate in 400 ml Columbia medium, 24 hours at 37° C., visual reading
Method: as §1

[17] = tested on: Streptococcus pyogenes NCTC 8 306; conditions: 40 mg substrate in 400 ml Columbia medium; 24 hours at 37° C.; visual reading
Method: as §1

Glycyl-2-(4′-aminostyryl)-N-methyl-benzothiazolinium iodide [Gly-ASBM^+]
Orange: Color ([16]; colony color)
0.5: Growth [15]
2: Growth [2] | Growth [3] | Growth [8] | Growth [9] | Growth [11] | Growth [12] | Growth [13] | Growth [14] | Growth [16]
1: Growth [1] | Growth [4] | Growth [5] | Growth [6] | Growth [7] | Growth [10] | Growth [17]
Pale: Color ([3]; colony color) | Color ([10]; colony color) | Color ([12]; colony color)
